Measured values published in patent publication EP0596449A2, “Serotonin receptor antagonists for treating myocardial ischemia” (E.R. SQUIBB & SONS, INC., priority 1992, dated 1994).
Entries after “also recorded” stand apart in the source; their conditions may differ. Marks after values point to notes of the source that are not given here.

What was measured:
[1] = test system: globally ischemic rat hearts; experiment: Parachlorophenylalanine pretreatment of rats, then global ischemia/reperfusion of the isolated hearts; settings: for time to contracture: parachlorophenylalanine pretreatment i.p., compared to vehicle, p<0.05, Figure 4
Procedure: (§1) To determine the effect of serotonin receptor agonists and antagonists, male Sprague-Dawley rats (450-550 g) were prepared as described below. The rats were anesthetized using 100 mg/kg sodium pentobarbital (i.p.). They were intubated and then treated with i.v. heparin (1000 U/kg). While being mechanically ventilated, their hearts were perfused in situ via retrograde cannulation of the aorta. The hearts were then excised and […] moved to a Langendorff apparatus where they were perfused with Krebs-henseleit bicarbonate buffer solution ((mM): 112 NaCI, 25 NaHC03, 5 KCI, 1.2 MgS04, 1 KH2P04, 1.25 CaC12, 2 pyruvate and 11.5 dextrose bubbled with 95% 02 - 5% C02) at a constant perfusion pressure (85 mm Hg). A water-filled latex balloon attached to a metal cannula was then inserted into the left ventricle and connected to a Statham pressure transducer for measurement of left ventricular pressure. The hearts were allowed to equilibrate for 15 min, at which time end diastolic pressure (EDP) was adjusted to 5 mm Hg and this balloon volume was maintained for the duration of the experiment. Pre-ischemia or pre-drug function, heart rate and coronary flow (extracorporeal electromagnetic flow probe) were then measured. Left ventricular developed pressure (LVDP) was calculated from the difference between left ventricular peak systolic pressure and EDP. Cardiac temperature was maintained throughout the experiment by submerging the hearts in 37 ° C buffer which was allowed to accumulate in a stoppered, heated chamber.
To determine if endogenous 5HT is mediating a pro-ischemic effect in isolated hearts, rats, prepared as described below were treated with parachlorophenylalanine. Parachlorophenylalanine depletes brain and peripheral 5HT by inhibition of tryptophan hydroxylase, the rate limiting step in 5HT synthesis. […] Male Sprague-Dawely rats (450-550 g) were injected with i.p. 105 mg/kg parachlorophenylalanine (n = 10) or its vehicle (water, n = 6) on three consecutive days. On the fourth day, the rats were anesthetized with 100 mg/kg sodium pentobarbital. The hearts were then excised and moved to an isolated heart apparatus as described above. The hearts were then subjected to 25 minutes to global ischemia and 30 minutes of reperfusion. Time to contracture, recovery of contractile function, coronary flow and cumulative LDH release were measured as described above.

[2] = test system: globally ischemic, isolated rat hearts; experiment: Effect of 5HT, alone or with 5HT2 antagonist, on time to contracture and pre-ischemic function in isolated rat hearts; settings: for Coronary Flow / HR / LVDP: pre-ischemic
Procedure: To determine the effect of serotonin receptor agonists and antagonists, male Sprague-Dawley rats (450-550 g) were prepared as described below. The rats were anesthetized using 100 mg/kg sodium pentobarbital (i.p.). They were intubated and then treated with i.v. heparin (1000 U/kg). While being mechanically ventilated, their hearts were perfused in situ via retrograde cannulation of the aorta. […] A water-filled latex balloon attached to a metal cannula was then inserted into the left ventricle and connected to a Statham pressure transducer for measurement of left ventricular pressure. […] Pre-ischemia or pre-drug function, heart rate and coronary flow (extracorporeal electromagnetic flow probe) were then measured. Left ventricular developed pressure (LVDP) was calculated from the difference between left ventricular peak systolic pressure and EDP. Cardiac temperature was maintained throughout the experiment by submerging the hearts in 37 ° C buffer which was allowed to accumulate in a stoppered, heated chamber. In another series of hearts, the effect of 5HT on the severity of ischemia was determined. […] Vehicle (0.1% DMSO) given 10 minutes before ischemia (n = 5). The hearts were subjected to global ischemia as described above and time to contracture determined. Reperfusion function and LDH release were not determined in this group.

[3] = test system: globally ischemic rat hearts; experiment: Global ischemia (25 min) and reperfusion (30 min) in isolated perfused rat hearts, 5HT2 antagonists; settings: for EC25: Rattus norvegicus, drug given 10 minutes before global ischemia, read-out: EC25 (concentration which increased the time to contracture 25% above vehicle group values)
Procedure: as §1
The model of global ischemia in isolated rat hearts was designed such that any protective effects observed are generally due to a direct cardioprotective effect and not to effects on cornonary or peripheral vascular tone. Also, because the hearts are perfused with an oxygenated buffer solution, platelets or the normal components of an inflammatory response are probably not important mediators of the ischemic/reperfusion injury observed in this model. […] Agents which exert their protective effects either through their effects on the peripheral or coronary vasculature such as nitrates or agents which act on blood or act on some component of the inflammatory response such as thromboxane A2 receptor antagonists are generally ineffective in this model.
The hearts were divided into the following groups: 1. Vehicle (0.1% DMSO) treatment beginning 10 minutes before the onset of ischemia (n = 8). 2. 0.3-10 µM ketanserin treatment beginning 10 minutes before the onset of ischemia (n = 4-5 per group). 3. 10 µM ketanserin given only during reperfusion (n = 4). 4. 0.1-10 µM cinanserin treatment beginning 10 minutes before global ischemia (n = 4-10). 5. 1-10 µM LY 53857 treatment beginning 10 minutes before the onset of ischemia (n = 4 per group). After 10 minutes of vehicle or drug pretreatment, the hearts were subjected to 25 minutes of total global ischemia which was initiated by shutting off the perfusate flow. Reperfusion was begun (without drug except in the case of group 3 above) and allowed to continue for 30 minutes. At this time, final measurements of EDP, LVDP and coronary flow were obtained. Cumulative LDH relase was measured in the reperfusate and was used as the index of cellular and membrane viability. In all hearts, the time to contracture during ischemia was measured and used as an index of cardioprotection during ischemia. Time to contracture is defined as the time (minutes) necessary for the first 5 mm Hg increase in EDP to occur during global ischemia. The data were expressed as the percent change in time to contracture from vehicle.

[4] = test system: alpha, Adrenoceptors; experiment: Methoxamine-induced contraction in rat aortic rings (alpha1 blocking potency); settings: 45 minute incubation; Figure 5A
Procedure: In order to determine the alpha1 blocking potency of cinanserin, ketanserin and LY 53857, their effect on methoxamine induced aortic constriction was determined. Male Sprague-Dawley rats were sacrificed using C02. Aortic rings (3 mm in width) were cut, denuded of endothelium by gently rolling the rings on moistened filter paper, and mounted on stainless steel hooks in 20 mL muscle chambers containing oxygenated physiological salt solution (PSS) of the following composition (in mM): 118.4 NaCI, 4.7 KCI, 1.2 MgS04, 1.2 KH2P04, 1.9 CaC12, 25.0 NaHC03, 10.1 D-glucose, and 0.01 mM Na2EDTA maintained at 37 °C. The hooks were connected to Grass FT03C transducers for recording of isometric force development. The rings were stretched to 2 g preload during the equilibration period. During equilibration the rings were periodically stimulated with 24 mM KCI to determine contractility. The effectiveness of endothelial removal was confirmed by the absence of relaxation by 1 µM acetylcholine of a contraction in response to 0.01 µM phenylephrine.
Various concentrations of the test compounds were then added to individual baths and allowed a 45 minute incubation before cumulative concentration response curves for methoxamine (1 nM-30 /1.M) were obtained. Solvent controls were run in parallel. […]

[5] = i.p. 105 mg/kg on three consecutive days, 30 Min. Post-Ischemia
[6] = i.p. 105 mg/kg on three consecutive days, Pre-Ischemia
[7] = 30 μM 5HT + 1 μM Cinanserin, Post-Drug
[8] = 30 μM 5HT + 1 μM Cinanserin, Pre-Drug

## N[C@@H](Cc1ccc(Cl)cc1)C(=O)O (racemic) [PCPA, parachlorophenylalanine]
[1]; [5]
  Coronary Flow: 18±2^b mL/min/g
  HR: 275±8^b beats/min
  LVDP: 60±7^a,b mmHg
[1]; i.p. 105 mg/kg on three consecutive days, 30 Min. Post-Ischemia (during reperfusion)
  LDH Release: 15±2^b u/g
[1]; [6]
  Coronary Flow: 18 ± 1 mL/min/g
  HR: 271±8 beats/min
  LVDP: 128±11 mmHg
[1]; listed as Parachlorophenylalanine
  time to contracture: significantly increased time to contracture
[1]; listed as parachlorophenylalanine
  time to contracture: significantly incareased the time to contracture

## NCCc1c[nH]c2ccc(O)cc12 [5HT, serotonin]
[2]; 1 μM 5HT, Post-Drug
  Coronary Flow: 16 ± 1 mL/min/g
  HR: 276±5 beats/min
  LVDP: 141±3 mmHg
[2]; 1 μM 5HT, Pre-Drug
  Coronary Flow: 16 ± 1 mL/min/g
  HR: 273±7 beats/min
  LVDP: 145±4 mmHg
[2]; 10 μM 5HT, Post-Drug
  Coronary Flow: 20 ± 2 mL/min/g
  HR: 294±11 beats/min
  LVDP: 132±7 mmHg
[2]; 10 μM 5HT, Pre-Drug
  Coronary Flow: 19 ± 2 mL/min/g
  HR: 300±7 beats/min
  LVDP: 135±4 mmHg
[2]; 30 μM 5HT, Post-Drug
  Coronary Flow: 14 ± 1 mL/min/g
  HR: 319±20 beats/min
  LVDP: 103±11 mmHg
[2]; 30 μM 5HT, Pre-Drug
  Coronary Flow: 16 ± 1 mL/min/g
  HR: 281±15 beats/min
  LVDP: 117±5 mmHg
[2]; 100 μM 5HT, Post-Drug
  Coronary Flow: 15 ± 3 mL/min/g
  HR: 369±19^a,b beats/min
  LVDP: 88±8^a,b mmHg
[2]; 100 μM 5HT, Pre-Drug
  Coronary Flow: 16 ± 2 mL/min/g
  HR: 298±10 beats/min
  LVDP: 121±8 mmHg
[2]; 1 and 10 µM concentrations
  effect on the severity of ischemia (time to contracture): without any measurable effect
[2]; at 30 and 100µM, compared to vehicle, p<0.05, Figure 3
  time to contracture: significantly reduced time to contracture
[2]; at >30 µM
  time to contracture: significantly decrease time to contracture

## CN(C)CCCSc1ccccc1NC(=O)/C=C/c1ccccc1 [Cinanserin, cinanserin]
[3]; 1-10 µM, compared to vehicle, Figure 2A
  reperfusion LDH release: Significant reductions in LDH
[3]
  EC25: 1.6 µM
[2]; [7]
  Coronary Flow: 18 ± 1 mL/min/g
  HR: 340±11^a,b beats/min
  LVDP: 122±5 mmHg
[2]; [8]
  Coronary Flow: 19 ± 1 mL/min/g
  HR: 297±9 beats/min
  LVDP: 139±7 mmHg
[2]; 30 µM 5HT plus antagonist, both given 10 minutes before ischemia, Figure 3
  effect on the pro-ischemic effect of 5HT (time to contracture): completely abolished this pro-ischemic effect; also recorded: abolished the pro-ischemic effect of serotonin

## CC(O)C(C)OC(=O)C1CC2c3cccc4c3c(cn4C(C)C)CC2N(C)C1 (stereo not drawn) [LY 53857]
[3]; 1 µM, 30 Min Post-Reperfusion
  Coronary Flow: 12±1^a mL/min/g
  HR: 230±25 beats/min
  LVDP: 23±5^a mmHg
[3]; 1 µM, Pre-Ischemia, Post-Drug
  Coronary Flow: 15 ± 1 mL/min/g
  HR: 257±6 beats/min
  LVDP: 132±6 mmHg
[3]; 1 µM, Pre-Ischemia, Pre-Drug
  Coronary Flow: 17 ± 1 mL/min/g
  HR: 270±5 beats/min
  LVDP: 141±4 mmHg
[3]; 3 µM, 30 Min Post-Reperfusion
  Coronary Flow: 13±1^a mL/min/g
  HR: 240±13 beats/min
  LVDP: 73±7^a,b mmHg
[3]; 3 µM, Pre-Ischemia, Post-Drug
  Coronary Flow: 17 ± 1 mL/min/g
  HR: 265±8 beats/min
  LVDP: 144±6 mmHg
[3]; 3 µM, Pre-Ischemia, Pre-Drug
  Coronary Flow: 17 ± 1 mL/min/g
  HR: 274±5 beats/min
  LVDP: 148±6 mmHg
[3]; 10 µM, 30 Min Post-Reperfusion
  Coronary Flow: 15 ± 3 mL/min/g
  HR: 250±4 beats/min
  LVDP: 86±6^a,b mmHg
[3]; 10 µM, Pre-Ischemia, Post-Drug
  Coronary Flow: 21 ± 3 mL/min/g
  HR: 252±12^a beats/min
  LVDP: 123±5 mmHg
[3]; 10 µM, Pre-Ischemia, Pre-Drug
  Coronary Flow: 20 ± 3 mL/min/g
  HR: 288±10 beats/min
  LVDP: 130±5 mmHg
[3]
  EC25: 6.1 µM
[3]; at 3 and 10 µM concentrations, Figure 2C
  reperfusion LDH release: significantly reduced it

## COc1cc2nc(N3CCN(C(=O)c4ccco4)CC3)nc(N)c2cc1OC [prazosin]
[4]
  concentration from which the methoxamine-tension curve was shifted to the right: 1 nM
